What was measured:
Kunming mice [1] = assay: Elevated plus maze (EPM) test in mice; type: in vivo, mouse; details: positive control, 2 mg/kg
Experimental: (§1) Kunming mice (Certificate Number: A4CXK(Chuan)2003-16) from the Institute of Experimental Animals, People's Hospital of Sichuan Province, were used. They were 3-4 weeks old at the beginning of the experiment and weighed 25-30 g. ORG was prepared as described in Example 1. Animals were divided into drug administration groups with different doses of ORG, a vehicle control group, and a diazepam group (Jinyao Ltd. Co., Batch No. 106k1588) as positive control.
Elevated plus maze (EPM): The EPM had two open and two closed arms of equal size (30 cm long×5 cm wide). The two closed arms were connected by a central 5 cm×5 cm area. The whole maze was elevated to a height of 35 cm. ORG was administered i.p. 24 h and 5 h before the test started. Mice were individually placed in the center of the maze facing a closed arm. Each animal was tested for 5 min in a single session. The number of entrances into open arms, the number of entrances into closed arms, the total time spent in open arms, and the total time spent in closed arms were recorded; a standard of entry was defined as all limbs entering the arm. The number of entrances into open arms and time spent in open arms were the major indexes to evaluate the anxiety level of the animals, for the more entrances or time, the less the anxiety level.
(§2) Data analysis: The results of the test are expressed as mean±SEM. One-way ANOVA was used followed by the LSD test with SPSS 11 software. The significance level was set at P<0.05.

Kunming mice [2] = assay: Morris water maze (MWM) in mice; type: in vivo, mouse
Experimental: Kunming mice (Certificate Number: A4CXK(Chuan)2003-16) from the Institute of Experimental Animals, People's Hospital of Sichuan Province, were used. They were 3-4 weeks old at the beginning of the experiment and weighed 25-30 g. ORG was prepared as described in Example 1. Animals were divided into drug administration groups with fluoxetine or different doses of ORG and a vehicle control group. The drug administration groups received 1.75 mg/kg or 3.5 mg/kg of ORG or 15 mg/kg of fluoxetine. Animals received a single i.p. injection of drug or vehicle 30 min either after training every day or 30 min before the retention test on day 8.
Morris water maze: The MWM was performed in a circular pool (100 cm in diameter and 36 cm in depth) with a hidden platform (10 cm×10 cm) that was approximately 1 cm below the water surface. The pool was surrounded by yellow curtains with different shaped markers hanging in each quadrant. The time spent to find the hidden platform and the trajectory of the mouse were recorded by computer. From days 1 to 7, mice were placed in the pool to find the fixed hidden platform. On day 8, the platform was removed and the time that the mouse spent in the target quadrant was counted in 1 min of free swimming.
as §2

serum corticosterone = assay: Serum corticosterone level (radioimmunoassay), non-stressed and elevated platform stressed rats; type: in vivo, rat
Kunming mice [3] = assay: Tail suspension test (TST) in mice; details: TST mice, positive control, 15 mg/kg
DD model mice [4] = assay: TST in constant darkness (DD) model mice; type: in vivo, mouse; details: DD mice, positive control, 15 mg/kg
Experimental: as §1, with “experiments” for “experiment”, “experimental” for “drug administration”, “doses,” for “doses of ORG, a”, “groups,” for “group,”, “an imipramine” for “a diazepam”, “(Sigma,” for “(Jinyao Ltd. Co.,”
(§3) DD model in mice: Mice were kept under 24 h continuous dark conditions. The replacement of padding, addition of food and water, and other operations were undertaken in the condition that the intensity of red light was less than 1.0 lux. The period of this condition lasted for 28 days. In the last week, ORG was administered orally once a day for 1 week. The FST and TST were carried out 30 min after the last administration. Methods and data analysis were as described above.

CMS model mice [5] = assay: TST in chronic unpredictable mild stress (CMS) model mice; type: in vivo, mouse; details: CMS mice, positive control, 15 mg/kg
Experimental: as §1, with “experiments” for “the experiment”, “experiment” for “drug administration”, “doses,” for “doses of ORG,”, “an imipramine” for “a diazepam”, “(Sigma,” for “(Jinyao Ltd. Co.,”
(§4) CMS model: The chronic mild stresses that Kunming mice were subjected to were reversal of circadian rhythm, continuous light, cold, damp bedding, tilt cages, food and water restriction, and restraint. […] The stress period lasted for 8 weeks. In the last week, ORG was administered orally once a day for 7 consecutive days. The behavioral test was carried out 30 min after the last administration. The parameter tested was immobility time in the FST and TST in the CMS model mice. The methods of FST and TST and data analysis were as described above.

Sprague-Dawley rats = assay: Forced swim test (FST) in rats; type: in vivo, rat; details: positive control, 15 mg/kg
SD model mice = assay: FST in sleep deprivation (SD) model mice; type: in vivo, mouse; details: SD model mice, 24 h and 5 h before FST, 7.5 mg/kg
Experimental: as §1, with “experiments” for “experiment”, “experiment” for “drug administration”, “doses,” for “doses of ORG,”, “an imipramine” for “a diazepam”, “(Sigma,” for “(Jinyao Ltd. Co.,”, “1061c1588)” for “106k1588)”
SD model: A modified method with multiple platforms in a water environment was used to establish the SD model in mice. Mice on the platforms were free to eat and drink. However, if it fell asleep, it fell into the water because of the loss of muscle tone. The fallen animal climbed onto the platform again via a tilt pole which propped up the platforms. After 72 h of sleep deprivation, ORG was administered orally 24 h and 5 h before the FST started. The immobility time of animals were recorded. Methods and data analysis were as described above.

DD model mice [6] = assay: FST in constant darkness (DD) model mice; type: in vivo, mouse; details: DD mice, positive control, 15 mg/kg
Experimental: as §1, with “experiments” for “experiment”, “experimental” for “drug administration”, “doses,” for “doses of ORG, a”, “groups,” for “group,”, “an imipramine” for “a diazepam”, “(Sigma,” for “(Jinyao Ltd. Co.,”
as §3

CMS model mice [7] = assay: FST in chronic unpredictable mild stress (CMS) model mice; type: in vivo, mouse; details: CMS mice, positive control, 15 mg/kg
Experimental: as §1, with “experiments” for “the experiment”, “experiment” for “drug administration”, “doses,” for “doses of ORG,”, “an imipramine” for “a diazepam”, “(Sigma,” for “(Jinyao Ltd. Co.,”
as §4

Kunming mice [8] = assay: Forced swim test (FST) in mice; details: FST mice
[9] = positive control, 15 mg/kg (Table 2)
[10] = i.p. 24 h and 5 h before test, 10 mg/kg (Table 5)

SMILES: CN1C(=O)CN=C(c2ccccc2)c2cc(Cl)ccc21 [Diazepam, diazepam, reference compound]
- Number of entries into open arms (mean ± SEM) (Kunming mice [1]): 4.80 ± 0.77
- Total time spent in the open arms (s) (mean ± SEM) (Kunming mice [1]): 46.90 ± 7.19 s

SMILES: CNCCC(Oc1ccc(C(F)(F)F)cc1)c1ccccc1 (stereo not drawn) [Fluoxetine, reference compound]
- Time spent in the right quadrant (s) (mean ± SEM) (Kunming mice [2]; i.p. 30 min before retrieval on day 8, 15 mg/kg): 29.44 ± 2.14 s
- Time spent in the right quadrant (s) (mean ± SEM) (Kunming mice [2]; i.p. daily 30 min after training, retention test day 8, 15 mg/kg): 32.61 ± 2.20 s
- Concentration of serum corticosterone (ng/ml) (mean ± SEM) (serum corticosterone; non-stress rats, 15 mg/kg): 167.20 ± 31.35 ng/mL
- Concentration of serum corticosterone (ng/ml) (mean ± SEM) (serum corticosterone; non-stress rats, 30 mg/kg): 178.14 ± 38.77 ng/mL
- Concentration of serum corticosterone (ng/ml) (mean ± SEM) (serum corticosterone; stress rats, 15 mg/kg): 331.35 ± 46.43 ng/mL
- Concentration of serum corticosterone (ng/ml) (mean ± SEM) (serum corticosterone; stress rats, 30 mg/kg): 324.58 ± 58.63 ng/mL

SMILES: CN(C)CCCN1c2ccccc2CCc2ccccc21 [Imipramine, imipramine, reference compound]
- Immobility time (s) (mean ± SEM) (Kunming mice [3]): 105.65 ± 5.71 s
- Immobility time (s) (mean ± SEM) (DD model mice [4]): 131.22 ± 10.61 s
- Immobility time (s) (mean ± SEM) (CMS model mice [5]): 131.22 ± 10.61 s
- Immobility time (s) (mean ± SEM) (Sprague-Dawley rats): 92.72 ± 7.09 s
- Immobility time (s) (mean ± SEM) (SD model mice): 150.27 ± 13.17 s
- Immobility time (s) (mean ± SEM) (DD model mice [6]): 161.22 ± 13.08 s
- Immobility time (s) (mean ± SEM) (CMS model mice [7]): 166.00 ± 13.84 s
- Immobility time (s) (mean ± SEM) (Kunming mice [8]; [9]): 131.20 ± 3.91 s
- Immobility time (s) (mean ± SEM) (Kunming mice [8]; positive control, 15 mg/kg (Table 4)): 96.38 ± 12.04 s
- Immobility time (s) (mean ± SEM) (Kunming mice [8]; positive control, 15 mg/kg (Table 5)): 146.00 ± 6.46 s

SMILES: Cc1cc(O)cc(O)c1 [OR, orcinol]
- Immobility time (s) (mean ± SEM) (Kunming mice [8]; i.p. 24 h and 5 h before test, 10 mg/kg (Table 4)): 82.40 ± 10.64 s

SMILES: CC(=O)Oc1cc(C)cc(OC(C)=O)c1 [OR-2Ac, 1,3-O-diacetylorcinol]
- Immobility time (s) (mean ± SEM) (Kunming mice [8]; [10]): 170.10 ± 6.37 s

SMILES: Cc1cc(O)cc(OC2OC(COC3OC(CO)C(O)C(O)C3O)C(O)C(O)C2O)c1 [ORGG, orcinol-1-O-[β-D-glucopyranosyl-(1→6)]-β-D-glucopyranoside]
- Immobility time (s) (mean ± SEM) (Kunming mice [8]; [10]): 184.20 ± 11.29 s

SMILES: COc1ccc(C(CN(C)C)C2(O)CCCCC2)cc1 (stereo not drawn) [Venlafaxine, venlafaxine, reference compound]
- Immobility time (s) (mean ± SEM) (Kunming mice [3]): 102.85 ± 9.34 s
- Immobility time (s) (mean ± SEM) (Sprague-Dawley rats): 100.80 ± 9.84 s
- Immobility time (s) (mean ± SEM) (Kunming mice [8]; [9]): 134.28 ± 3.76 s
